Data taken from publication PMC8623179, “Design and Microwave Synthesis of New (5Z) 5-Arylidene-2-thioxo-1,3-thiazolinidin-4-one and (5Z) 2-Amino-5-arylidene-1,3-thiazol-4(5H)-one as New Inhibitors of Protein Kinase DYRK1A” (Pharmaceuticals, 2021).
Where two headings read alike, the source gives them in different places.

Assays:
DYRK1A [1] = settings: reported; cited from earlier work
HCT116 = experiment: Cell survival assay, HCT116; assay type: cell-based; settings: Homo sapiens, HCT-116; 48 h exposure, nuclei count; read-out: Cell Lines IC50 HCT116
Method: (§1) Skin diploid fibroblastic cells were provided by BIOPREDIC International Company (Rennes, France). […] Cells were grown according to ECACC recommendations. The toxicity test of the compounds on these cells was as follows: 2 × 10^3 cells for HCT-116 cells or 4 × 10^3 for the other cells were seeded in 96-multi-well plates in triplicate and left for 24 h for attachment, spreading and growing. Then, cells were exposed for 48 h to increasing concentrations of the compounds, ranging from […], in a final volume of 120 μL of culture medium. […] The IC50 were graphically determined.

MDA-MB231 = experiment: Cell survival assay, MDA-MB231; assay type: cell-based; settings: Homo sapiens, MDA-MB-231; 48 h exposure, nuclei count; read-out: Cell Lines IC50 MDA-MB231
Method: as §1

DYRK1A [2] = molecular target: T1, DYRK1A (Rattus norvegicus, UniProt Q63470); experiment: DYRK1A kinase assay; assay type: biochemical; settings: 15 μM ATP
T1 construct: GST; made in house; host or cells: Escherichia coli
Method: (§2) The twenty-two (5Z) 5-arylidene-2-thioxo-1,3-thiazolidin-4-ones 3a–v and the twenty-four (5Z) 2-amino-5-arylidene-1,3-thiazolidin-4(5H)-ones 5a–x were evaluated against four different and representative in vitro kinase assays DYRK1A (dual specificity tyrosine phosphorylation regulated kinase), CK1 δ/e (caseine kinase 1), CDK5/p25 (cyclin dependant kinase), and GSK3 α/β (glycogen synthase kinase 3) to evaluate their inhibition potency. […] All the compounds were initially tested at a 10 μM concentration.
After 30-min incubation at 30 °C, the reaction was stopped by harvesting, using a FilterMate harvester (Packard), onto P81 phospho-cellulose papers (GE Healthcare, Chicago, IL, USA) which were washed in 1% phosphoric acid. Scintillation fluid was added and the radioactivity measured in a Packard counter. Blank values were subtracted and activities calculated as pmoles of phosphate incorporated for the 30-min incubation. The activities were expressed in % of the maximal activity, i.e., in the absence of inhibitors. Controls were performed with appropriate dilutions of DMSO. […]

Casein kinase 1 (CK1δ/ε) = experiment: CK1δ/ε kinase assay; assay type: biochemical, porcine; settings: 15 μM ATP, read-out: IC50 CK1
Method: as §2
(§3) After 30-min incubation at 30 °C, the reaction was stopped by harvesting, using a FilterMate harvester (Packard), onto P81 phospho-cellulose papers (GE Healthcare, Chicago, IL, USA) which were washed in 1% phosphoric acid. Scintillation fluid was added and the radioactivity measured in a Packard counter. Blank values were subtracted and activities calculated as pmoles of phosphate incorporated for the 30-min incubation. The activities were expressed in % of the maximal activity, i.e., in the absence of inhibitors. Controls were performed with appropriate dilutions of DMSO.
Casein kinase 1 (CK1δ/ε) (porcine brain, native) was assayed with 0.67 µg of CKS peptide ([…]pSAYSITA), a CK1 specific substrate obtained from Millegen (Labege, France).

GSK-3α/β = GSK-3α/β kinase assay; assay type: biochemical, porcine; settings: 15 μM ATP, read-out: IC50 GSK3α/β
Method: as §2, §3
GSK-3α/β (porcine brain, native) was assayed, as described for CDK5/p25 but in Buffer A and using a GSK-3 specific substrate (GS-1: […]pEDEEE) (pS stands for phosphorylated serine). GS-1 was synthesized by Millegen (Labege, France).

PC3 = experiment: Cell survival assay, PC3; assay type: cell-based; settings: Homo sapiens, PC-3; 48 h exposure, nuclei count; read-out: Cell Lines IC50 PC3
Method: as §1

Fibroblasts = experiment: Cell survival assay, normal skin diploid fibroblasts; assay type: cell-based; settings: Fibroblast; normal cells, 48 h exposure, nuclei count; read-out: Cell Lines IC50 Fibroblasts
Method: as §1

NCI-H727 = experiment: Cell survival assay, NCI-H727; assay type: cell-based; settings: Homo sapiens, 48 h exposure, nuclei count, read-out: Cell Lines IC50 NCI-H727
Method: as §1

Huh7 D12 = experiment: Cell survival assay, Huh7 D12; assay type: cell-based; settings: Huh-7D12; 48 h exposure, nuclei count; read-out: Cell Lines IC50 Huh7 D12
Method: as §1

Caco2 = experiment: Cell survival assay, Caco2; assay type: cell-based; settings: Homo sapiens, Caco-2; 48 h exposure, nuclei count; read-out: Cell Lines IC50 Caco2
Method: as §1

CDK5/p25 = molecular target: T2, CDK5/p25 (Homo sapiens, UniProt Q00535); experiment: CDK5/p25 kinase assay; assay type: biochemical; settings: 15 μM ATP
T2 construct: made in house
T2 sequence (Q00535 whole entry): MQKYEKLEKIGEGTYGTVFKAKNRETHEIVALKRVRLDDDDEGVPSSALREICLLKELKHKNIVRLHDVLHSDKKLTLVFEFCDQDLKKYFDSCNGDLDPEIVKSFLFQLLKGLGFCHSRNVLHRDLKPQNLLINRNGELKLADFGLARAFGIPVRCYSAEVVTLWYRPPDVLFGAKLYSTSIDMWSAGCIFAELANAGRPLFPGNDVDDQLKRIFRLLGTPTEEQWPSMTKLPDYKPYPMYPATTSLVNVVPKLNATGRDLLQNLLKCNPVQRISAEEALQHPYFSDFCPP
T2 sequence (Q15078 99-307 partner limits assumed): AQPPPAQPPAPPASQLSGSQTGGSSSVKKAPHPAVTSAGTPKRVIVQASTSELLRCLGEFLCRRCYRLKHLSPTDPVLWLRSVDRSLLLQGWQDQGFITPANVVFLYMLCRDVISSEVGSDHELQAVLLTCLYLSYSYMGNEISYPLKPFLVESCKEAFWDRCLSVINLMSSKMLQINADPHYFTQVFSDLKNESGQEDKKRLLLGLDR
Method: as §2, §3
CDK5/p25 (human, recombinant) was prepared as previously described. […] ATP (3000 Ci/mmol; 10 mCi/mL) in a final volume of 30 μL. After 30-min incubation at 30 °C, 25 μL aliquots of supernatant were spotted onto 2.5 × 3 cm pieces of Whatman P81 phospho-cellulose paper, and, 20 s later, the filters were washed five times (for at least 5 min each time) in a solution of 10 mL phosphoric acid/litter of water. The wet filters were counted in the presence of 1 mL ACS (Amersham, UK) scintillation fluid.

| SMILES | IC50 (DYRK1A [2]; Table 4) [µM] | IC50 (Casein kinase 1 (CK1δ/ε); Table 4) [µM] | IC50 (GSK-3α/β; Table 4) [µM] | IC50 (CDK5/p25; Table 4) [µM] | IC50 (DYRK1A [2]; Table 5) [µM] | IC50 (Casein kinase 1 (CK1δ/ε); Table 5) [µM] | IC50 (GSK-3α/β; Table 5) [µM] | IC50 (CDK5/p25; Table 5) [µM] | also measured |
| --- | --- | --- | --- | --- | --- | --- | --- | --- | --- |
| Nc1ncc(I)c(-c2c[nH]c3ccccc23)n1 [Meridianine 74] |  |  |  |  |  |  |  |  | IC50 (DYRK1A [1]): 0.066 µM |
| O=C1NC(=S)S/C1=C\c1ccc2c(c1)OCO2 [Compound 3a, (5Z)-5-(1,3-Benzodioxol-5-ylmethylene)-2-thioxo-1,3-thiazolidin-4-one] | 0.07 | > 10 | 8.5 | > 10 |  |  |  |  | IC50 (HCT116): > 25 µM; IC50 (MDA-MB231): > 25 µM; IC50 (PC3): > 25 µM; IC50 (Fibroblasts): > 25 µM; IC50 (NCI-H727): > 25 µM; IC50 (Huh7 D12): > 25 µM; IC50 (Caco2): > 25 µM |
| O=C1NC(=S)S/C1=C\c1cc(O)cc(O)c1 [Compound 3k, (5Z)-5-(3,5-Dihydroxybenzylidene)-2-thioxo-1,3-thiazolidin-4-one] | > 10 | > 10 | > 10 | > 10 |  |  |  |  | melting point: 230 to 232 °C |
| Nc1nccc(-c2c[nH]c3nccc(O)c23)n1 [Merioline 2] |  |  |  |  |  |  |  |  | IC50 (DYRK1A [1]): 0.029 µM |
| c1csc(CNc2ncnc3ccc(-c4ccc5c(c4)OCO5)cc23)c1 [V] |  |  |  |  |  |  |  |  | IC50 (DYRK1A [1]): 0.062 µM |
| O=C1N=C(Nc2ccccc2)S/C1=C\c1ccc2c(c1)OCO2 [Compound 5r, (5Z)-5-Benzo[1,3]dioxol-5-ylmethylene-2-phenylamino-1,3-thiazol-4(5H)-one] |  |  |  |  | 0.61 | > 10 | > 10 | > 10 |  |
| O=C1N=C(N2CCOCC2)S/C1=C\c1ccc2c(c1)CCO2 [Compound 5m, (5Z)-5-(2,3-Dihydro-benzofuran-5-ylmethylene)-2-(morpholin-4-yl)-1,3-thiazol-4(5H)-one] |  |  |  |  | 0.6 | > 10 | ≥ 10 | > 10 |  |
| O=C1/C(=C/c2ccc3c(c2)OCO3)SC(=S)N1NS(=O)(=O)c1ccccc1 [Compound 3t, (5Z)-N-(5-Benzo[1,3]dioxol-5-ylmethylene-4-oxo-2-thioxo-thiazolidin-3-yl)-benzenesulfonamide] | > 10 | > 10 | > 10 | > 10 |  |  |  |  |  |
| O=C1N=C(N2CCCCC2)S/C1=C\c1ccc2c(c1)OCCO2 [Compound 5p, (5Z)-5-(2,3-Dihydro-1,4-benzodioxin-6-ylmethylene)-2-(piperidin-1-yl)-1,3-thiazol-4(5H)-one] |  |  |  |  | 0.94 | ≥ 10 | > 10 | > 10 |  |
| O=C1N=C(Nc2ccc(Cl)cc2)S/C1=C\c1ccc2c(c1)OCO2 [Compound 5v, (5Z)-5-Benzo[1,3]dioxol-5-ylmethylene-2-(4-chloro-phenylamino)-1,3-thiazol-4(5H)-one] |  |  |  |  | 9 | > 10 | > 10 | > 10 |  |
| O=C1N=C(Nc2ccccc2)S/C1=C\c1ccc2c(c1)OCCO2 [Compound 5x, (5Z)-5-(2,3-Dihydro-benzo[1,4]dioxin-6-ylmethylene)-2-phenylamino-1,3-thiazol-4(5H)-one] |  |  |  |  | 0.27 | > 10 | > 10 | > 10 |  |
| O=C(O)CCN1C(=O)/C(=C/c2ccc3c(c2)OCO3)SC1=S [Compound 3v, (5Z)-3-(5-Benzo[1,3]dioxol-5-ylmethylene-4-oxo-2-thioxo-thiazolidin-3-yl)-propionic acid] | 0.7 | > 10 | > 10 | > 10 |  |  |  |  |  |
| O=C1N=C(Nc2ccccc2)S/C1=C\c1ccc2c(c1)CCO2 [Compound 5w, (5Z)-5-(2,3-Dihydro-benzofuran-5-ylmethylene)-2-phenylamino-1,3-thiazol-4(5H)-one] |  |  |  |  | 0.12 | > 10 | > 10 | > 10 |  |
